# Test results from patent US6084072A, “Purified lectin and methods of use” (The Regents of the University of Michigan, priority 1993, dated 2000).
# Where “and” joins values, the source holds several entries; their conditions need not be identical. Equal entries are not always repeated.
# What was measured:
# [1] = system: asialo-ovine submaxillary mucin; assay: pH dependence of amaranthin/asialo-ovine submaxillary mucin precipitation; assay type: binding; conditions: 80 μg amaranthin, 5 μg asialo-ovine submaxillary mucin, universal buffer
# Description: The pH dependence study utilized a 2-fold concentrate of a universal buffer system consisting of sodium citrate (24.6 mM), KH2 PO4 (28.7 mM) sodium barbitol (29.1 mM), boric acid (28.8 mM), and NaCl (209 mM), and was adjusted to the indicated pH values with 0.2 N NaOH or 0.2 N HCl. Water was added to complete the 2-fold dilution and the pH was recorded. Amaranthin and asialo-ovine submaxillary mucin solutions were prepared as concentrated solutions in 0.9% NaCI. A standard precipitation assay with amaranthin (80μg) and asialo-ovine submaxillary mucin (5 μg) was carried out using the universal buffer at the indicated pH.
# colonic adenocarcinoma = assay type: binding, human; parameters: key to Labeling of transitional mucosa: 4^+: Maximum labeling of the brown reaction product; 0: No staining of the slide compared to control sections; 1^+: trace or weak staining definitely not seen on control slides; 2+3^+: stronger staining, but definitely less than maximal
# FAP colonic tissue = assay: Lectin histochemistry, familial adenomatous polyposis (FAP) colonic tissue; assay type: binding, human
# Excerpt: Full thickness specimens of colonic tissue were obtained from colectomy specimens for familial adenomatous polyposis at Johns Hopkins Hospital, fixed in formalin, and embedded in paraffin for tissue sectioning. The tissue specimens contained normal-appearing flat mucosa familial adenomatous polyposis, or FAP-normal, as well as a polypoid, adenomatious tissue familial adenomatous polyposis, or FAP-abnormal.
# Four micron paraffin embedded tissue sections attached to glass slides were deparaffinized by serial incubations in xylene (twice), absolute ethanol (thrice), 95% ethanol, 70% ethanol, water and finally equilibrated in phosphate buffered saline (PBS), pH 7.0, containing 0.1% bovine serum albumin (BSA) commercially available from Sigma Corp of St. Louis, Mo. The slides were blotted dry adjacent to the tissue sections, and biotinylated lectin was added at a concentration of 10 μg/ml (for ACA) and 20 μg/ml (for PNA) in a quantity sufficient to completely cover the hydrated tissue (100-2001 μl). The lectin was rinsed off after a 30 minute incubation by eight 2-second dips into phosphate buffered saline. The slides were again blotted, and the tissue covered with Streptavidin-horseradish peroxidase (HRP) obtained from Zymed Laboratories, San Francisco, Calif. at a concentration of 10 μg/ml for 30 minutes. The slides were rinsed as mentioned above, and the pigmented reaction product developed by the addition of a freshly prepared chromogen reagent solution prepared within two hours of use as follows.
# 3,3'-diaminobenzidine was aliqotted at 5 mg/mL in 0.01 M (Tris) tris hydroxy methyl amino methane saline, pH 7.5 and frozen at -70° C. until use. For use, the aliquot was thawed, diluted 1:10 in 0.01 M (Tris) tris hydroxy methyl amino methane saline pH 7.5, and 3.3 μL of 30% H2 O2 were added to each 5 ml. This solution was allowed to stand for 10 min, and 100-200 μl was applied to the tissue sections that had been incubated earlier with biotinylated lectin and Streptavidin-HRP. After 10 min, the slides were rinsed with albumin-free phosphate buffered saline. […]
# A second method for scoring tissues was used to survey normal colonic tissues, adenomatous polyps, and cancers. For these studies, individual epithelial "units" were counted as either positive or negative; i.e., each crypt of Lieberkuhn or neoplastic gland was considered an independent scorable unit, and the tissue score was expressed in terms of the percentage of units with any degree of definite labeling as from 1^+ to 4^+. […]
# Therefore, each individual crypt of Lieberkuhn was given a score from 0-4^+, and the labeling was expressed as a "weighted average", or, the sum of scores from 100 crypts, which could range from 0 (all crypts not labeled) to 400 (all 100 crypts maximally labeled). […]
substance,measurement,setting,value
amaranthin,pH at or below which almost no precipitate formed,[1],≤ 3 pH
same,pH of peak precipitation activity,[1],5 pH
same,pH range of significant amaranthin activity,[1],4-9 pH
same,Effect of Newcastle disease virus neuraminidase on labeling,colonic adenocarcinoma; cancer specimens,Neither sialidase enhanced labeling
same,Effect of V. Cholerae neuraminidase on labeling,colonic adenocarcinoma; cancer specimens,Neither sialidase enhanced labeling
same,Percent of Epithelial Units Labeled,"colonic adenocarcinoma; malignant glands, mean ± SEM, listed as ACA",97±2% and 97%±2%
same,Labeling of transitional mucosa,"colonic adenocarcinoma; mucosa adjacent to colonic cancer, upper and lower crypt region",1^+
same,Weighted Average (0-400),"FAP colonic tissue; FAP, mean ± SEM, listed as ACA",224±76
same,Percent of epithelial glands with bound lectin,"FAP colonic tissue; all 28 specimens, mean",67±6%
same,Percent of Epithelial Units Labeled,"FAP colonic tissue; flat tissue, mean ± SEM, listed as ACA",60±7% and 60%±7%
same,Percent of Epithelial Units Labeled,"FAP colonic tissue; polypoid tissue, mean ± SEM, listed as ACA",83±7% and 83%±7%
